Patent US10676471B2, “Cycloalkyl-linked diheterocycle derivatives” (Pfizer Inc., priority 2014, dated 2020)

What follows are compounds tested on BT20 Cell (assay: Cancer Cell Lysate Total L-Glutamate Assay). Conditions: Homo sapiens, BT-20, 2 h, total L-glutamate in cell lysate, BT20 cells, 2 hour incubation with test compound.
Assay type: cell-based
Procedure: Cancer Cell Lysate Total L-Glutamate Assay
Cancer cell lines (BT20, HCT116, SKOV3, HCC70, SUM149, MDA-MB-231, etc.) were plated in 96 well plates and were used for the total L-glutamate assay when the monolayer was ca. 80% confluent. The media was changed and fresh media containing L-glutamine was added to the 96 well plates, just before incubation of the cells with test compound. The test compound was diluted in 100% DMSO using a two-fold or three-fold serial dilution. Small volumes of the dilutions of test compound were added to the 96 well plates so the final DMSO concentration was 0.5% v/v in the cell culture medium. The cells were incubated at 37° C., 5% CO2, and 95% air for 2 hours. Following the 2 hour incubation, the cells were washed with water 2 times. After the last water wash, 100 μL of 50 mM Tris-HCl pH 7.4 and 0.01% Tween-20 was added to each well and the plate was frozen at −80° C. The 96 well plate was frozen and thawed a total of 3 times and then sonicated for 5 min at 4° C. in a bath sonicator. Following sonication, the 96 well plate was centrifuged for 5 min at 1000 rpm and 10 μL of the supernatant was transferred to a 384 well assay plate.
Total L-glutamate (L-glutamic acid) in the cell lysis supernatant was detected using glutamate oxidase, horseradish peroxidase and Amplex Red reagent (10-acetyl-3,7-dihydroxy phenoxazine, Invitrogen # A22177). In this assay, L-glutamate was oxidized by glutamate oxidase to produce alpha-ketoglutarate (2-oxopentane dioic acid), NH3 and H202. The H2O2 (hydrogen peroxide) was used by horseradish peroxidase (HRP) to oxidize the Amplex Red Reagent to resorufin which is a fluorescent molecule. When resorufin is excited with light with a wavelength 530-560 nm, it emits light at approximately 585 nm. For detection of total L-glutamate in 10 μL of lysate, 15 μL of an enzyme mixture was added to each well of the 384 well assay plate. The enzyme mixture consisted of 50 mM Tris-HCl pH 7.4, 0.01% Tween-20, 50 μM Amplex Red reagent (final concentration), 0.04 U/mL L-glutamate oxidase (final concentration), and 0.125 U/mL HRP (final concentration). The 384 well assay plate was incubated at room temperature for 5 min and then the fluorescence intensity of each well was measured at 585 nm using a 530-560 nm excitation wavelength in a plate based fluorimeter such as an LJL Analyst or a Tecan Infinite plate reader. Standard curves were constructed for this assay using dilutions of a L-glutamate standard. IC50 were calculated by plotting the relative fluorescent units vs log of the inhibitor concentration and fitting the data to the four parameter logistic equation.
Reference: Chapman J. and Zhou M. (1999) Microplate-based fluorometric methods for the enzymatic determination of I-glutamate: application in measuring I-glutamate in food samples. Analytica Chim Acta 402:47-52.

Compound | IC50
O=C(Cc1ccccn1)Nc1nnc(C[C@@H]2CC[C@H](c3nnc(Nc4ncccn4)s3)C2)s1 (single isomer, unassigned) [Example 84, 2-(pyridin-2-yl)-N-[5-({(cis)-3-[5-(pyrimidin-2-ylamino)-1,3,4-thiadiazol-2-yl]cyclopentyl}methyl)-1,3,4-thiadiazol-2-yl]acetamide] | 0.5 nM
O=C(Cc1ccccn1)Nc1ccc(C[C@H]2CC[C@@H](c3nnc(NC(=O)C[C@H]4CCCO4)s3)C2)nn1 (single isomer, unassigned) [Example 131] | 3.1 nM
CC(=O)Nc1nnc(C2CCC(Cc3nnc(NC(=O)Cc4ccccc4)s3)C2)s1 (racemic) [Example 15, N-[5-({(cis)-3-[5-(acetylamino)-1,3,4-thiadiazol-2-yl]cyclopentyl}methyl)-1,3,4-thiadiazol-2-yl]-2-phenylacetamide] | 10.6 nM
Cc1ccc(CC(=O)Nc2nnc(C[C@H]3C[C@@H](c4nnc(NC(=O)Cc5ccc(C)cn5)s4)C3)s2)nc1 (single isomer, unassigned) [Example 108, 2-(5-methylpyridin-2-yl)-N-(5-{[cis-3-(5-{[(5-methylpyridin-2-yl)acetyl]amino}-1,3,4-thiadiazol-2-yl)cyclobutyl]methyl}-1,3,4-thiadiazol-2-yl)acetamide] | 0.3 nM
C[C@@H](C(=O)Nc1nnc(C[C@H]2CC[C@@H](c3nnc(NC(=O)[C@H](C)c4cccnc4)s3)C2)s1)c1cccnc1 (single isomer, unassigned) [Example 36, 2-(pyridin-3-yl)-N-(5-{[(cis)-3-(5-{[2-(pyridin-3-yl)propanoyl]amino}-1,3,4-thiadiazol-2-yl)cyclopentyl]methyl}-1,3,4-thiadiazol-2-yl)propanamide] | 284 nM
O=C(Cc1ccccn1)Nc1nnc(C2CCC(c3nnc(NC(=O)Cc4ccccn4)s3)CC2)s1 (racemic) [Example 140, N,N′-(cyclohexane-1,4-diyldi-1,3,4-thiadiazole-5,2-diyl)bis[2-(pyridin-2-yl)acetamide]] | 380 nM
Cn1cnc(CC(=O)Nc2nnc([C@H]3CC[C@@H](Cc4ccc(NC(=O)Cc5ccccn5)nn4)C3)s2)c1 (relative stereo) [Example 128, 2-(1-methyl-1H-imidazol-4-yl)-N-{5-[(cis)-3-({6-[(pyridin-2-ylacetyl)amino]pyridazin-3-yl}methyl)cyclopentyl]-1,3,4-thiadiazol-2-yl}acetamide] | 2 nM
O=C(Cc1ccccn1)Nc1ccc(C[C@H]2CC[C@@H](c3nnc(NC(=O)c4ccccn4)s3)C2)nn1 (single isomer, unassigned) [Example 116, N-{5-[(cis)-3-({6-[(pyridin-2-ylacetyl)amino]pyridazin-3-yl}methyl)cyclopentyl]-1,3,4-thiadiazol-2-yl}pyridine-2-carboxamide] | 5.9 nM
CC(=O)Nc1nnc(CC2CCC(c3nnc(NC(=O)Cc4ccccc4)s3)C2)s1 (racemic) [Example 43, (rac)-N-{5-[(cis)-3-{[5-(acetylamino)-1,3,4-thiadiazol-2-yl]methyl}cyclopentyl]-1,3,4-thiadiazol-2-yl}-2-phenylacetamide] | 94.4 nM
CCC(=O)Nc1ccc(C[C@H]2C[C@@H](c3nnc(NC(=O)Cc4ccccn4)s3)C2)nn1 (single isomer, unassigned) [Example 73] | 0.7 nM
O=C(Cc1ccccc1)Nc1ccc(C[C@H]2CC[C@@H](c3nnc(NC(=O)Cc4ccccn4)s3)C2)nn1 (single isomer, unassigned) [Example 81, 2-phenyl-N-(6-{[(cis)-3-{5-[(pyridin-2-ylacetyl)amino]-1,3,4-thiadiazol-2-yl}cyclopentyl]methyl}pyridazin-3-yl)acetamide] | 4.5 nM
CCNc1nnc([C@@H]2CC[C@H](Cc3ccc(NC(=O)Cc4ccccn4)nn3)C2)s1 (single isomer, unassigned) [Example 101, N-[6-({(cis)-3-[5-(ethylamino)-1,3,4-thiadiazol-2-yl]cyclopentyl}methyl)pyridazin-3-yl]-2-(pyridin-2-yl)acetamide] | 339 nM
O=C(Cc1ccccn1)Nc1ccc([C@H]2C[C@@H](Cc3nnc(NC(=O)Cc4ccccn4)s3)C2)nn1 (single isomer, unassigned) [Example 124, 2-(pyridin-2-yl)-N-{5-[(cis-3-{6-[(pyridin-2-ylacetyl)amino]pyridazin-3-yl}cyclobutyl)methyl]-1,3,4-thiadiazol-2-yl}acetamide] | 4.7 nM
C[C@H](C(=O)Nc1nnc(C[C@@H]2CC[C@H](c3nnc(NC(=O)[C@@H](C)c4cccnc4)s3)C2)s1)c1cccnc1 (single isomer, unassigned) [Example 33, 2-(pyridin-3-yl)-N-(5-{[(cis)-3-(5-{[2-(pyridin-3-yl)propanoyl]amino}-1,3,4-thiadiazol-2-yl)cyclopentyl]methyl}-1,3,4-thiadiazol-2-yl)propanamide] | 7 nM
O=C(Cc1ccccc1)Nc1nnc(CC2CCC(c3nnc(NC(=O)Cc4ccccc4)s3)C2)s1 (racemic) [Example 9, (rac)-2-phenyl-N-(5-{[(cis)-3-{5-[(phenylacetyl)amino]-1,3,4-thiadiazol-2-yl}cyclopentyl]methyl}-1,3,4-thiadiazol-2-yl)acetamide] | 17 nM
O=C(Cc1ccccn1)Nc1nnc(C2CCCC(c3nnc(NC(=O)Cc4ccccn4)s3)C2)s1 (racemic) [Example 139, N,N′-[cyclohexane-1,3-diyldi-1,3,4-thiadiazole-5,2-diyl]bis[2-(pyridin-2-yl)acetamide]] | 196 nM
O=C(Cn1cccn1)Nc1nnc(C[C@H]2CC[C@@H](c3nnc(NC(=O)Cc4ccccn4)s3)C2)s1 (racemic) [Example 142, (rac)-2-(1H-pyrazol-1-yl)-N-(5-{[(cis)-3-{5-[(pyridin-2-ylacetyl)amino]-1,3,4-thiadiazol-2-yl}cyclopentyl]methyl}-1,3,4-thiadiazol-2-yl)acetamide] | 13.2 nM
CCC(=O)Nc1ccc(C[C@@H]2CC[C@H](c3nnc(NC(=O)CCOC)s3)C2)nn1 (single isomer, unassigned) [Example 90, 3-methoxy-N-{5-[(cis)-3-{[6-(propanoylamino)pyridazin-3-yl]methyl}cyclopentyl]-1,3,4-thiadiazol-2-yl}propanamide] | 1.3 nM
O=C(Cc1ccccn1)Nc1nnc(C2CCC(c3nnc(NC(=O)Cc4ccccn4)s3)C2)s1 (racemic) [Example 138, N,N′-[cyclopentane-1,3-diyldi-1,3,4-thiadiazole-5,2-diyl]bis[2-(pyridin-2-yl)acetamide]] | 120 nM
CC(=O)Nc1nnc([C@@H]2CC[C@H](Cc3nnc(NC(=O)Cc4cscn4)s3)C2)s1 (racemic) [Example 145, (rac)-N-[5-({(cis)-3-[5-(acetylamino)-1,3,4-thiadiazol-2-yl]cyclopentyl}methyl)-1,3,4-thiadiazol-2-yl]-2-(1,3-thiazol-4-yl)acetamide] | 7.1 nM
CC(=O)Nc1nnc(C2CC[C@@H](Cc3nnc(NC(=O)c4ccccc4)s3)C2)s1 (single isomer, unassigned) [Example 13, N-[5-({(cis)-3-[5-(acetylamino)-1,3,4-thiadiazol-2-yl]cyclopentyl}methyl)-1,3,4-thiadiazol-2-yl]benzamide] | 23.8 nM
O=C(Cc1ccccn1)Nc1ccc(CC2CCC(c3nnc(NC(=O)Cc4ccccn4)s3)C2)nn1 (racemic) [Example 70, (rac)-2-(pyridin-2-yl)-N-{5-[(cis)-3-({6-[(pyridin-2-ylacetyl)amino]pyridazin-3-yl}methyl)cyclopentyl]-1,3,4-thiadiazol-2-yl}acetamide] | 0.2 nM
CCC(=O)Nc1nnc([C@H]2C[C@@H](Cc3nnc(NC(=O)Cc4ccccn4)s3)C2)s1 (single isomer, unassigned) [Example 105, N-{5-[cis-3-({5-[(pyridin-2-ylacetyl)amino]-1,3,4-thiadiazol-2-yl}methyl)cyclobutyl]-1,3,4-thiadiazol-2-yl}propanamide] | 9.5 nM

Same assay, conditions: total L-glutamate in cell lysate, BT20 cells, 2 hour incubation with test compound

Compound | IC50
Cn1ccc(CC(=O)Nc2nnc([C@H]3CC4(C[C@H](c5nnc(NC(=O)Cc6ccn(C)n6)s5)C4)C3)s2)n1 (stereo partly drawn) [Example 98, N,N′-(spiro[3.3]heptane-2,6-diyldi-1,3,4-thiadiazole-5,2-diyl)bis[2-(1-methyl-1H-pyrazol-3-yl)acetamide]] | 0.5 nM
